This is an account of results in patent US6908734B2, “Sulfated CCR5 peptides for HIV-1 infection” (priority 2000, dated 2005).

Assay [1] relates to gp120JR-FL/CD4-IgG2 complex binding to CCR5. Briefly: Inhibition of gp120JR-FL/CD4-IgG2 complex binding to L1.2-CCR5+ cells (flow cytometry). The conditions noted are these: gp120 100 nM, biotinylated CD4-IgG2 50 nM, different concentrations of peptide. In kind it is cell-based, HIV-1. As to the method:
A gp120/CD4 complex formed from monomeric gp120 (100 nM) and biotinylated CD4-IgG2 (50 nM) was added to 1×10^6 L1.2-CCR5^+ cells in the presence of different concentrations of peptide (Olson et al. J. Virol. 73:4145, 1999). CD4-IgG2 is tetrameric and therefore binds four molecules of gp120, which increases binding of the complex to CCR5 (Allaway et al. AIDS Res. Hum. Retroviruses 11:533, 1995). The mean fluorescence intensity (m.f.i.) was measured by flow cytometry after addition of phycoerythrin (PE)-labeled streptavidin (Becton Dickinson, San Jose, Calif.). Inhibition of gp120/CCR5 binding was calculated: […].

In the next assay the test system is gp120JR-FL/CD4-IgG2. The assay can be described thus: CCR5 Nt peptide ELISA with gp120JR-FL/CD4-IgG2. In kind it is binding, HIV-1. The conditions noted are these: for Avidity for gp120JR-FL/CD4-IgG2 relative to 2-18 (fold lower): ELISA; for Binding of gp120JR-FL/CD4-IgG2 to peptide (ELISA): peptide 1 μg/ml on streptavidin plate.
The next assay has as its system gp120JR-FL/sCD4. Briefly: BIAcore: gp120JR-FL/sCD4 binding to immobilized biotinylated CCR5 Nt peptide. The conditions noted are these: protein 100 nM; 400 RU biotinylated peptide on streptavidin chip. Set-up: species or system HIV-1. As to the method: (§1) Streptavidin-coated sensor chips (BIAcore AB, Sweden) were conditioned with five injections of regeneration solution (1M NaCl, 50 mM NaOH) and equilibrated with HBS-EP buffer (10 mM HEPES, 150 mM NaCl, […], 0.005% polysorbate 20) as recommended by the manufacturer. Biotinylated peptides were then immobilized on the chip by injection of peptide (100 nM) in HBS-EP buffer, followed by an injection of regeneration solution and equilibration with HBS-EP buffer. 400 resonance units (RU) of peptide were bound to the sensor chip surface. Solutions of the following proteins (100 nM) were passed over the sensor chip surface: gp120, sCD4, gp120/sCD4, PA8, PA10 and 2D7. […] Following injection of each solution the chip was regenerated and equilibrated as described above.
Biotinylated peptide was attached to the streptavidin-coated gold surface of a sensor chip and solutions containing different gp120/sCD4 complexes were flowed over the immobilized peptide. Adsorption of the complex due to complex/peptide binding was detected by an increase in surface plasmon resonance signal (RU), which reports changes in the effective refraction index very near the gold surface of the sensor chip (Schuck Ann. Rev. Biophys Biomol Struct 26:541, 1997). […]
Binding of gp120/CD4-IgG2 complex and MAbs to CCR5 Nt-based peptides was measured as previously described. […]

The test system of the next assay is PA10. Briefly: BIAcore: PA10 on immobilized peptide. It counts as binding, mouse. The conditions noted are these: MAb 100 nM. As to the method:
as §1

In assay [2] the target is T1, gp120JR-FL/CD4-IgG2 binding to the sulfopeptide 2-18 (Homo sapiens, UniProt P51681).
T1 construct: a peptide spanning CCR5 residues 2-18 and containing sulfotyrosines in positions 10 and 14; host or cells: peptide synthetic
The assay can be described thus: Competition ELISA: gp120JR-FL/CD4-IgG2 binding to sulfopeptide 2-18. Also on record: species or system HIV-1. The conditions noted are these: complex 1 nM, up to supraphysiologic concentrations. As to the method: In a competition ELISA, peptides were captured onto the plates as described above. Inhibitor or assay buffer was added for 1 h prior to addition of gp120JR-FL/CD4-IgG2 complex (1 nM) for an additional h at room temperature. The assay was then completed as described above. Direct binding of anti-CCR5 murine MAbs to the peptides was examined as described above except that MAb was substituted for gp120/CD4-IgG2 complex and a goat anti-mouse HRP-coupled antibody was used for detection.

In the next assay the test system is PA10 binding to CCR5. Briefly: Inhibition of anti-CCR5 MAb PA10 binding to L1.2-CCR5 cells. The conditions noted are these: MAb 50 nM, peptide 100 μM. In kind it is cell-based, mouse. As to the method: L1.2-CCR5 cells (1×10^6) were incubated with anti-CCR5 MAb (50 nM)±peptide (100 μM). MAb binding was detected using a PE-labeled goat anti-mouse antibody (Caltag Laboratories, Burlingam, Calif.). The m.f.i value was measured by flow cytometry as described (Olson et al. J. Virol. 73:4145, 1999). MAb binding was calculated as above.

Entries after “also recorded” stand apart in the source; their conditions may differ. Where no end group is shown, it is not given here. [ ]: non-standard residue; d: D form. The star is where a group is joined. Biotin = O=C1N[C@H]2[C@H](CS[C@H]2CCCCC(=O)*)N1; sY = N[C@@H](Cc1ccc(OS(=O)(=O)O)cc1)C(=O)O; pY = N[C@@H](Cc1ccc(OP(=O)(O)O)cc1)C(=O)O

As to “TS-10/14: peptide spanning amino acids 10-14 of CCR5, two sulfo-tyrosine residues ([sY]DIN[sY])”, the “Inhibition of gp120JR-FL/CD4-IgG2 binding to CCR5+ cells” value in assay [1] is on record as “did not inhibit”.

On to “8-15: CCR5 residues 8-15, sulfotyrosines in positions 10 and 14, GAG spacer, biotinylated lysine (PI[sY]DIN[sY]YGAG-{K(biotin)}; UniProt P51681 8-15, looked up, fragment)”, for which the “Avidity for gp120JR-FL/CD4-IgG2 relative to 2-18 (fold lower)” value in the assay with gp120JR-FL/CD4-IgG2 is on record as “at least ten-fold less avidly”.

For “6-16: CCR5 residues 6-16, sulfotyrosines in positions 10 and 14, GAG spacer, biotinylated lysine (SSPI[sY]DIN[sY]YTGAG-{K(biotin)}; UniProt P51681 6-16, looked up, fragment)”, the “Avidity for gp120JR-FL/CD4-IgG2 relative to 2-18 (fold lower)” value in the assay with gp120JR-FL/CD4-IgG2 is on record as “at least ten-fold less avidly”.

Turning to “10-18: CCR5 residues 10-18 (YDINYYTSE), sulfotyrosines in positions 10 and 14, GAG spacer, biotinylated lysine ([sY]DIN[sY]YTSEGAG-{K(biotin)})”, in the assay with gp120JR-FL/CD4-IgG2, the “Avidity for gp120JR-FL/CD4-IgG2 relative to 2-18 (fold lower)” value is ~3 fold and the “Binding of gp120JR-FL/CD4-IgG2 to peptide (ELISA)” value is reported as “significant binding; also recorded: avidly bound”.

Regarding “bS-10/14: biotinylated version of S-10/14 with C-terminal GAG spacer preceding a biotinylated lysine; apparently as 2-18 (DYQVSSPI[sY]DIN[sY]YTSEGAGK(Biotin))”, the “Association of gp120JR-FL/sCD4 complex with immobilized peptide (RU)” value in the assay with gp120JR-FL/sCD4 is “significant increase in RU”. Also, in the assay with PA10, the “Association of PA10 with immobilized peptide (BIAcore)” value is given as “associate”.

As for MIP-1α: CC-chemokine known to bind CCR5, the “Inhibition of gp120JR-FL/CD4-IgG2 binding to the sulfopeptide 2-18” value (shortened to “Inhibition … to the sulfopeptide 2-18”) in assay [2] is reported as “not inhibited”.

Turning to “S-14: peptide spanning amino acids 2-18 of the CCR5 Nt, sulfo-tyrosine in position 14 (DYQVSSPIYDIN[sY]YTSE; not fully specified; UniProt P51681 2-18, looked up, fragment)”, the “Inhibition of gp120JR-FL/CD4-IgG2 binding to CCR5+ cells” value in assay [1] was “no inhibitory activity”.

In the case of “S-3/10/14: tyrosine-sulfated peptide spanning amino acids 2-18 of the CCR5 Nt, sulfo-tyrosines in positions 3, 10 and 14 (D[sY]QVSSPI[sY]DIN[sY]YTSE; UniProt P51681 2-18, looked up, fragment)”, in assay [1], the “Inhibition of gp120JR-FL/CD4-IgG2 binding to CCR5+ cells” value is “inhibited complex binding to the cells in a dose-dependent manner”. Besides, the “Inhibition of PA10 binding to CCR5+ cells” value in the assay with PA10 binding to CCR5 is “inhibited”.

Consider “S-10: peptide spanning amino acids 2-18 of the CCR5 Nt, sulfo-tyrosine in position 10 (DYQVSSPI[sY]DINYYTSE; UniProt P51681 2-18, looked up, fragment)”, for which the “Inhibition of gp120JR-FL/CD4-IgG2 binding to CCR5+ cells” value in assay [1] was “no inhibitory activity”.

As to RANTES: CC-chemokine known to bind CCR5, the “Inhibition … to the sulfopeptide 2-18” value in assay [2] is reported as “not inhibited”.

As to “S-10/14: tyrosine-sulfated peptide spanning amino acids 2-18 of the CCR5 Nt, sulfo-tyrosines in positions 10 and 14 (DYQVSSPI[sY]DIN[sY]YTSE; UniProt P51681 2-18, looked up, fragment)”, in assay [1], the “Inhibition of gp120JR-FL/CD4-IgG2 binding to CCR5+ cells” value is “inhibited complex binding to the cells in a dose-dependent manner”.

Consider “10-18(11A/18A): peptide 10-18 with residues Asp-11 and Glu-18 substituted for alanines ([sY]AIN[sY]YTSA; not fully specified (C-terminus); UniProt P51681 10-18, looked up, variant D11A E18A)”, for which, in the assay on gp120JR-FL/CD4-IgG2, the “Binding of gp120JR-FL/CD4-IgG2 to peptide (ELISA)” value is on record as “only weakly bound”.

As to “bP-10/14: biotinylated version of P-10/14 with C-terminal GAG spacer preceding a biotinylated lysine; apparently as 2-18(P) (DYQVSSPI[pY]DIN[pY]YTSEGAGK(Biotin))”, the “Association of gp120JR-FL/sCD4 complex with immobilized peptide (RU)” value with gp120JR-FL/sCD4 was “complete lack of association”.

B1: MIP-1β: CC-chemokine known to bind CCR5 (protein, UniProt P13236 24-92, looked up)
C-C motif chemokine 4: APMGSDPPTACCFSYTARKLPRNFVVDYYETSSLCSQPAVVFQTKRSKQVCADPSESWVQEYVYDLELN
Turning to B1, the “Inhibition … to the sulfopeptide 2-18” value in assay [2] is listed as “not inhibited”.
